Assays:
[1] = biological target: T1, Polyunsaturated fatty acid lipoxygenase ALOX15 (Oryctolagus cuniculus, UniProt P12530); assay: biochemical; type: tissue-based, Reticulocytes; settings: reticulocytes;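 further: inhibition of 15-lipoxygenase enzyme activity measured with linoleic acid as the substrate; in other assays of this panel Not Active means under 50% inhibition at 10 µM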
T1 sequence (P12530 whole entry): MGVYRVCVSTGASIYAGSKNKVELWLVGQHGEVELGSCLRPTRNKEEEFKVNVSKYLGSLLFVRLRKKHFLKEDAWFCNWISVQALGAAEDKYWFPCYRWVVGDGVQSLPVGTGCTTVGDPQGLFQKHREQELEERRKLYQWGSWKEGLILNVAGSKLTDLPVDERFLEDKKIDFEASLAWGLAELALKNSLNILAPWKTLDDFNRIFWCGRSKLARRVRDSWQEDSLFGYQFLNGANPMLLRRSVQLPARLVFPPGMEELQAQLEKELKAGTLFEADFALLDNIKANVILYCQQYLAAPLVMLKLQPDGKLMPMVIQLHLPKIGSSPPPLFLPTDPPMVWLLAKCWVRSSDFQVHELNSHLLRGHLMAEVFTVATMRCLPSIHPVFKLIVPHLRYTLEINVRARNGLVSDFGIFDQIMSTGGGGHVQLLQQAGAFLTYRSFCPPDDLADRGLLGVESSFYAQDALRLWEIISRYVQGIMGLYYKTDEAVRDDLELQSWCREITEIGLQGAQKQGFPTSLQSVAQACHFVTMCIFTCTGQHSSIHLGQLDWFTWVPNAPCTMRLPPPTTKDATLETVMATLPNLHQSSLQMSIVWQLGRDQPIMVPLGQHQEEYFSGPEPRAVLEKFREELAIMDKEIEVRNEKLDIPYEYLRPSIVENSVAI

[2] = DRUGMATRIX: Sodium/nucleoside co-transporter radioligand binding (ligand: nitrobenzylthioinosine); type: cell membranes, Cavia porcellus, Dunkin-Hartley, Cerebral cortex, Membrane; settings: Not Active = under 50% inhibition at 10 µM
[3] = biological target: Mitogen-activated protein kinase 14 (Homo sapiens, UniProt Q16539); parameters: species or system Escherichia coli;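 further: inhibition of p38alpha enzyme activity in a biochemical kinase assay, with myelin basic protein serving as substrate; in other assays of this panel Not Active means under 50% inhibition at 10 µM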
[4] = biological target: Tyrosine-protein kinase Fyn (Homo sapiens, UniProt P06241); assay: biochemical; type: cell-based, Insect cells; settings: insect cells;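 further: enzymatic inhibition of Fyn kinase activity measured with Poly(Glu:Tyr) as the phosphorylation substrate; in other assays of this panel Not Active means under 50% inhibition at 10 µM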
Cytochrome P450 2A6 = biological target: T2, Cytochrome P450 2A6 (Homo sapiens, UniProt P11509); settings: bti-tn-5b1-4; further: in other assays of this panel Not Active means under 50% inhibition at 10 µM
T2 sequence (P11509 whole entry): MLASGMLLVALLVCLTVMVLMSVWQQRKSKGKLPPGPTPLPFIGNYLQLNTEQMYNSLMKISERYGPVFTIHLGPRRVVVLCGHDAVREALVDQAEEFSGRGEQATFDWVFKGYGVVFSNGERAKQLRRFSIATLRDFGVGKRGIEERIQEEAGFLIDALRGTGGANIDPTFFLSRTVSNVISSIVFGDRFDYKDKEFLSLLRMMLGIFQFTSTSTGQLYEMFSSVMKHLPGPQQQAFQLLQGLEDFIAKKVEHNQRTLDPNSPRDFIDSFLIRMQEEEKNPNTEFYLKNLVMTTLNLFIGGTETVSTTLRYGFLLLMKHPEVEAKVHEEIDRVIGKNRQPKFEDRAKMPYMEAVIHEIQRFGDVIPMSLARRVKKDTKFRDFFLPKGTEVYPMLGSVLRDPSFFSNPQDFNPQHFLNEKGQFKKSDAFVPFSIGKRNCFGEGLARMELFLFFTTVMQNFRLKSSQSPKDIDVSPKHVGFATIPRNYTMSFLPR

[5] = DRUGMATRIX: Serotonin (5-Hydroxytryptamine) 5-HT3 radioligand binding (ligand: [3H] GR-65630); type: cell membranes, Membrane; settings: hek293; Not Active = under 50% inhibition at 10 µM
[6] = biological target: 5-hydroxytryptamine receptor 6 (Homo sapiens, UniProt P50406); type: cell membranes, HeLa, Membrane; settings: hela; further: in other assays of this panel Not Active means under 50% inhibition at 10 µM
Nitric oxide synthase 1 = Nitric oxide synthase 1 (Rattus norvegicus, UniProt P29476); type: tissue-based, Cerebellum; further: in other assays of this panel Not Active means under 50% inhibition at 10 µM
[7] = DRUGMATRIX: Glutamate, AMPA radioligand binding (ligand: [3H] AMPA); type: cell membranes, Rattus norvegicus, Wistar, Cerebral cortex, Membrane; settings: Not Active = under 50% inhibition at 10 µM
Endothelin-1 receptor = biological target: T3, Endothelin-1 receptor (Homo sapiens, UniProt P25101); type: cell membranes, Membrane; settings: cho-k1; further: in other assays of this panel Not Active means under 50% inhibition at 10 µM
T3 sequence (P25101 whole entry): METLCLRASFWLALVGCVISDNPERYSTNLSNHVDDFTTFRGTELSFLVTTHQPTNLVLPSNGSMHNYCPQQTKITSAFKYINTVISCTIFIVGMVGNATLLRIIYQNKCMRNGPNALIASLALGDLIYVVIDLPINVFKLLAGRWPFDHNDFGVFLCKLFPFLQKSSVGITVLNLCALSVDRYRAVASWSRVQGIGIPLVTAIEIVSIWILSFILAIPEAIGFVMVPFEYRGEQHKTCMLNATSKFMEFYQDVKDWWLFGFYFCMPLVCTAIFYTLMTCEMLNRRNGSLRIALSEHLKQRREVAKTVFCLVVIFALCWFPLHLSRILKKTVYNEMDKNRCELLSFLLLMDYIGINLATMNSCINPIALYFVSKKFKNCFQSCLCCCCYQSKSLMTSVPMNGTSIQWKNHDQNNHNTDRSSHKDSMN

[8] = biological target: 5-hydroxytryptamine receptor 2B (Homo sapiens, UniProt P41595); type: cell membranes, CHO-K1, Membrane; further: in other assays of this panel Not Active means under 50% inhibition at 10 µM
[9] = DRUGMATRIX: Phosphodiesterase PDE4 enzyme inhibition (substrate: [3H]cAMP + cAMP); settings: u-937; Not Active = under 50% inhibition at 10 µM
[10] = DRUGMATRIX: Purinergic P2X radioligand binding (ligand: [3H] alpha, beta-Methylene-ATP); type: cell membranes, Oryctolagus cuniculus, New Zealand albino, Urinary bladder, Membrane; settings: Not Active = under 50% inhibition at 10 µM
[11] = biological target: T4, Muscarinic acetylcholine receptor M4 (Homo sapiens, UniProt P08173); type: cell membranes, CHO-K1, Membrane; settings: cho-k1; further: in other assays of this panel Not Active means under 50% inhibition at 10 µM
T4 sequence (P08173 whole entry): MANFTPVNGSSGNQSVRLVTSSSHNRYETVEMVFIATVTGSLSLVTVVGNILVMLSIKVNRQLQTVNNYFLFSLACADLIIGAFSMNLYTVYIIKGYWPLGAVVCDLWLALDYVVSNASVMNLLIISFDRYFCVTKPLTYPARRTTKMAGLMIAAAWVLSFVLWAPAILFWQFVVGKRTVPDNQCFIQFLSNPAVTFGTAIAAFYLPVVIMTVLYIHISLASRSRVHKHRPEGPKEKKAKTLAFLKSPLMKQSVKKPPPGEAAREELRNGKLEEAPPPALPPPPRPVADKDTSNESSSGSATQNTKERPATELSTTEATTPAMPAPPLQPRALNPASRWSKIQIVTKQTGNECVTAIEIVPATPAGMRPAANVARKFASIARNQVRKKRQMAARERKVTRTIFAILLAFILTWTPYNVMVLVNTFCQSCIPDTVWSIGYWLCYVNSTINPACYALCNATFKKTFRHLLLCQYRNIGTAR

5-hydroxytryptamine receptor 2B, sequence (P41595 whole entry): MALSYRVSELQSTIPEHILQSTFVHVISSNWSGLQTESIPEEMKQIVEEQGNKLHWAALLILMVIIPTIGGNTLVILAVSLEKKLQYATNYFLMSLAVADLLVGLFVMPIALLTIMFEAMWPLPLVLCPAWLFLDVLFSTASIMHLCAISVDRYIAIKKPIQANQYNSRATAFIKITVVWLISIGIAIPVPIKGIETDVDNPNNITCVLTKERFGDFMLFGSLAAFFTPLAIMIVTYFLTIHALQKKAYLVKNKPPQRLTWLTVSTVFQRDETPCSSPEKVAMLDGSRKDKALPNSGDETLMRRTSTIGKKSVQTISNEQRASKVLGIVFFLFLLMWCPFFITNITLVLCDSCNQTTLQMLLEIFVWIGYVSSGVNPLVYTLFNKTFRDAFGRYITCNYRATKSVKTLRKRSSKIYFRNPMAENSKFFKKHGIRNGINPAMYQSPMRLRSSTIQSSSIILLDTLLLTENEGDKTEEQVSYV
Tyrosine-protein kinase Fyn, sequence (P06241 whole entry): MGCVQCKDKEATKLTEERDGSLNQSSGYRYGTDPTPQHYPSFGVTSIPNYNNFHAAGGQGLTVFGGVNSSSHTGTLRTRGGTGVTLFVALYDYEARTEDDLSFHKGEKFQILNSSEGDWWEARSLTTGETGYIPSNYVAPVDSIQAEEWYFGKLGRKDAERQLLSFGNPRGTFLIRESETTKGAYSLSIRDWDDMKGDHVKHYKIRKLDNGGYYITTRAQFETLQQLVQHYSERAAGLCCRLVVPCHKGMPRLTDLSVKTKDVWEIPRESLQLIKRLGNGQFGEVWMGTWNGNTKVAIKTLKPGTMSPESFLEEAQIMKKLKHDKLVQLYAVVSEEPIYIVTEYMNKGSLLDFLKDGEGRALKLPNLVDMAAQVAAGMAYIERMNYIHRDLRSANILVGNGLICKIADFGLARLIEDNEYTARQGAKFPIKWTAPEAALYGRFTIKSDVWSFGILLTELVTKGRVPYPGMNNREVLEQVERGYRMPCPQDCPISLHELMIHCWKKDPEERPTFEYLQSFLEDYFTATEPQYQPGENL
Mitogen-activated protein kinase 14, sequence (Q16539 whole entry): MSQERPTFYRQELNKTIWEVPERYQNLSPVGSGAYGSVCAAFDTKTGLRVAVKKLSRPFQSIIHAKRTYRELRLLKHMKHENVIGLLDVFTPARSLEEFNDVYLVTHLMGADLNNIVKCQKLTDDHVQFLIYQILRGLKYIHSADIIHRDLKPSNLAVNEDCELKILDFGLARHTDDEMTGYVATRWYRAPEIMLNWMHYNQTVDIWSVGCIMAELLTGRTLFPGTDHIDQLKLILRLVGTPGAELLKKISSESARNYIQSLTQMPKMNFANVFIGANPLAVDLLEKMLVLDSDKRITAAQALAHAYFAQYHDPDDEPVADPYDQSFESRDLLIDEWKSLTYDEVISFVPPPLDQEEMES
5-hydroxytryptamine receptor 6, sequence (P50406 whole entry): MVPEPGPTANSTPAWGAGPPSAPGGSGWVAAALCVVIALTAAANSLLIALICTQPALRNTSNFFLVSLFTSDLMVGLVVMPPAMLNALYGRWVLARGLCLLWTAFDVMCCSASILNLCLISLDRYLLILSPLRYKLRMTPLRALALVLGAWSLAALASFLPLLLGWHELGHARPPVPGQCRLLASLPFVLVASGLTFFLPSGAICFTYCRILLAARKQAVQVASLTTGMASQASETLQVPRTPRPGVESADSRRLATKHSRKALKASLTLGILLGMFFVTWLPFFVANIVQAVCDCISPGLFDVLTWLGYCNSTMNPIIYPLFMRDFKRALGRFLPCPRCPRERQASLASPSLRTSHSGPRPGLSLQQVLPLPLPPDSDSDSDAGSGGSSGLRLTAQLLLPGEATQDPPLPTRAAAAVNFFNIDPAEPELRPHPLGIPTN
Nitric oxide synthase 1, sequence (P29476 whole entry): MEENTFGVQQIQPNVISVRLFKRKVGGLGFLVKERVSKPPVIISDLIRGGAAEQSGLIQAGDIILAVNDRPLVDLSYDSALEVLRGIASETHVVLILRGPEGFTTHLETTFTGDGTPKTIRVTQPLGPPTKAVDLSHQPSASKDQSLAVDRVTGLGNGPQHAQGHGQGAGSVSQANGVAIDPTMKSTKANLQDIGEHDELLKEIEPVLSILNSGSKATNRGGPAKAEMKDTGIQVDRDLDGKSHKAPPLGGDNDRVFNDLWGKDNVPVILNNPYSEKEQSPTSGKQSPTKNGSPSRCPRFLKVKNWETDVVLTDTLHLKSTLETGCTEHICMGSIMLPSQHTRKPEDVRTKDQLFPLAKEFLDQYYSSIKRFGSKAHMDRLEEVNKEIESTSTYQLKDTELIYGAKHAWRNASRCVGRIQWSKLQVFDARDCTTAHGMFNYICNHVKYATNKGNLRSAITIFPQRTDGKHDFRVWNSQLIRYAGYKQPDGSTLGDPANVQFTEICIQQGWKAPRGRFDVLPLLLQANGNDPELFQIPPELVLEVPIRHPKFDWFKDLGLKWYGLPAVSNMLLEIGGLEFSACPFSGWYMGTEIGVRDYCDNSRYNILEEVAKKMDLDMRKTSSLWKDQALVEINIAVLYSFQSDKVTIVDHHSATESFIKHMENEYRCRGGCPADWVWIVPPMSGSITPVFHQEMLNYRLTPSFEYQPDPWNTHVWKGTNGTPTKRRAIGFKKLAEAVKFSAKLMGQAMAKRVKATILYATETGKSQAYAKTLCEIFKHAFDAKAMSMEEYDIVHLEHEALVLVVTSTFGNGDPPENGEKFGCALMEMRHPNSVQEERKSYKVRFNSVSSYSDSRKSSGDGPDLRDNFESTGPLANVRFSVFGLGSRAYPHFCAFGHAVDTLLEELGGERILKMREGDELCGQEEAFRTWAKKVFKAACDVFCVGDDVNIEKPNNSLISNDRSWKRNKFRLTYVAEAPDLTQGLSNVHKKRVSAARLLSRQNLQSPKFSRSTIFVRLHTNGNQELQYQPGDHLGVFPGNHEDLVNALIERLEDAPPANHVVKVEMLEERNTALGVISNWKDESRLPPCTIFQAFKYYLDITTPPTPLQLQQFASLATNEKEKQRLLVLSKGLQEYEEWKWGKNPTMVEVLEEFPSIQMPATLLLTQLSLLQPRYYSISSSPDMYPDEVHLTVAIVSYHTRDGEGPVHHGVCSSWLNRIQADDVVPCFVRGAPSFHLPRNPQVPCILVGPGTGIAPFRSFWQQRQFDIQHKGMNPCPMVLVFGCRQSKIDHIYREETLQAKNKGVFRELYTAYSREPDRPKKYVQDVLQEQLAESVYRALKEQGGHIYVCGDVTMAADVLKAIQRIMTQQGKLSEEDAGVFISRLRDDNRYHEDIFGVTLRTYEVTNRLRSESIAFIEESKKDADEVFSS

Compound | IC50 [1] | IC50 [2] | Ki [2] | IC50 [3] | IC50 [4] | IC50 (Cytochrome P450 2A6) | Ki (Cytochrome P450 2A6) | IC50 [5] | Ki [5] | IC50 [6] | IC50 (Nitric oxide synthase 1) | IC50 [7] | Ki [7] | IC50 (Endothelin-1 receptor) | IC50 [9] | Ki [9] | IC50 [10] | Ki [10] | IC50 [11] | IC50 ([8]; cho-k1) | other results
CC[C@@]1(O)C(=O)OCc2c1cc1n(c2=O)Cc2cc3ccccc3nc2-1 [CAMPTOTHECIN] | Not Active | Not Active | Not Active | Not Active | Not Active | Not Active | Not Active | Not Active | Not Active | Not Active | Not Active | Not Active | Not Active | Not Active | Not Active | Not Active | Not Active | Not Active | Not Active |  | IC50 ([8]; read-out: IC50): 970 nM; Ki ([8]; read-out: Ki): 617 nM
CC(=O)O[C@]1(C(C)=O)CC[C@H]2[C@@H]3C=C(Cl)C4=CC(=O)CC[C@]4(C)[C@H]3CC[C@@]21C [CHLORMADINONE ACETATE] | Not Active | Not Active | Not Active | Not Active | Not Active | Not Active | Not Active | Not Active | Not Active | Not Active | Not Active | Not Active | Not Active | Not Active | Not Active | Not Active | Not Active | Not Active | Not Active | Not Active | 
C[C@]12CCC(=O)C=C1CC[C@@H]1[C@@H]2C(=O)C[C@@]2(C)[C@H]1CC[C@]2(O)C(=O)CO [CORTISONE] | Not Active | Not Active | Not Active | Not Active | Not Active | Not Active | Not Active | Not Active | Not Active | Not Active | Not Active | Not Active | Not Active | Not Active | Not Active | Not Active | Not Active | Not Active | Not Active | Not Active | 
Brc1ccccc1 [BROMOBENZENE] | Not Active | Not Active | Not Active | Not Active | Not Active | Not Active | Not Active | Not Active | Not Active | Not Active | Not Active | Not Active | Not Active | Not Active | Not Active | Not Active | Not Active | Not Active | Not Active | Not Active | 
O=C1NC(=O)C(c2ccccc2)(c2ccccc2)N1 [PHENYTOIN] | Not Active | Not Active | Not Active | Not Active | Not Active | Not Active | Not Active | Not Active | Not Active | Not Active | Not Active | Not Active | Not Active | Not Active | Not Active | Not Active | Not Active | Not Active | Not Active | Not Active | 
C=C(C)[C@@H]1[C@H]2OC(=O)[C@@H]1[C@]1(O)C[C@H]3O[C@]34C(=O)O[C@H]2[C@]14C [PICROTOXININ] | Not Active | Not Active | Not Active | Not Active | Not Active | Not Active | Not Active | Not Active | Not Active | Not Active | Not Active | Not Active | Not Active | Not Active | Not Active | Not Active | Not Active | Not Active | Not Active | Not Active | 
CC(=O)[C@@]1(O)CC[C@H]2[C@@H]3C[C@H](C)C4=CC(=O)C=C[C@]4(C)[C@@]3(F)[C@@H](O)C[C@@]21C [FLUOROMETHOLONE] | Not Active | Not Active | Not Active | Not Active | Not Active | Not Active | Not Active | Not Active | Not Active | Not Active | Not Active | Not Active | Not Active | Not Active | Not Active | Not Active | Not Active | Not Active | Not Active | Not Active | 

Source: ChEMBL document CHEMBL1909046, “DrugMatrix in vitro pharmacology data”
